Results taken from article PMC2806525, “Proteinase-activated receptor-2 mediated inhibition of TNFα-stimulated JNK activation — A novel paradigm for Gq/11 linked GPCRs” (Cellular Signalling, 2010).
Entries after “also recorded” stand apart in the source; their conditions may differ.

Experiments:
PKC = assay: TNFα-stimulated JNK activity, PKC activator / PKC inhibitor, PAR2 NCTC2544 cells; format: cell-based, human; settings: not shown
Procedure: (§1) Human skin epithelial cells NCTC2544 were maintained in M199 medium with Earl's salt supplement, 10% (v/v) foetal calf serum, L-glutamine (27 µg/ml), penicillin (250 U/ml), and streptomycin (25 mg/ml). NCTC2544 cells stably expressing human PAR2 (clone G) were maintained in complete M199 medium containing 400 μg/ml of Geneticin for selection pressure and passaged using Versene (2% EDTA/PBS). EAhy-926 cells were produced by hybridizing human umbilical vein endothelial cells (HUVECs) with the epithelial cell line A549 [27] and maintained in Dulbecco's Modified Eagle's Medium (DMEM) supplemented with 10% foetal calf serum (FCS), hypoxanthine/aminopterin/thymidine (HAT supplement), penicillin (250 U/ml) and streptomycin (25 mg/ml), and cells were passaged using Versene.
To measure JNK activity, cells were stimulated as appropriate and the reaction terminated by rapid aspiration and the addition of ice-cold PBS. The cells were solubilised in 20 mM HEPES buffer, pH 7.7, containing 50 mM NaCl, 0.1 mM EDTA, 0.1 mM Na3VO4, 0.1 mM PMSF, 10 mg/ml aprotinin, 10 mg/ml leupeptin, and 1% (w/v) Triton X-100. Lysates were clarified by centrifugation for 5 min at 13,000 rpm and equal amounts of protein were incubated with 20 μg of GST-c-Jun-(5–89) immobilized on glutathione-Sepharose at 4 °C for 3 h. Beads were then washed three times in solubilisation buffer and twice in 25 mM HEPES buffer, pH 7.6, containing 20 mM β-glycerophosphate, 0.1 mM NaV3O4, and 2 mM dithiothreitol. Precipitates were then incubated with the same buffer containing 25 μM/0.5 μCi of ATP/[γ-^32P] ATP in a final volume of 30 µl at 30 °C for 30 min. The reactions were terminated by the addition of 4× SDS-sample buffer and aliquots of each sample subjected to electrophoresis on 11% SDS-polyacrylamide gel electrophoresis. Phosphorylation of GST-c-Jun was then determined by autoradiography.
Where experimental data is shown as a blot, this represents one of at least 3 experiments and data represents the mean ± s.e.m. Statistical analysis was by one-way ANOVA with Dunnett's post test (*P < 0.05, **P < 0.01).
Fig. 5 Pharmacological blockade of protein kinase C reverses PAR2 mediated inhibition of TNFα-stimulated JNK activation. PAR2 expressing NCTC2544 cells (clone G) were pre-incubated with increasing concentrations of GF109203X (GFX) for 30 min then incubated for a further 30 min with 100 nM PMA (Panel A) or 30 nM trypsin (Panel B) prior to stimulation for a further 30 min with TNFα(+) (10 ng/ml). Samples were assessed for JNK activity (Panels A and B) or phospho-JNK levels (Panel D) as outlined in the Methods section. Gels from JNK activity assays were quantified by densitometry (Panel C). Each value represents the mean ± s.e.m from at least 4 experiments. ⁎⁎P < 0.01 compared to TNFα and trypsin stimulated.

PKC isoforms = settings: no reference given; cited from earlier work
Excerpt: We then examined the potential signalling pathways which could be mediating the inhibitory effects of PAR2. PAR2 is coupled to a number of signalling pathways via G-protein dependent and independent mechanisms. […] Therefore, we tested the effect of the PKC inhibitor GF109203X on PAR2 mediated inhibition of JNK activity and phosphorylation. ... || We then sought to investigate the possible mechanisms by which PAR2 mediated inhibition of JNK might occur. […] This is typical of a number of keratinocyte cell type ...

β2 [1] = settings: ref [34]; cited from earlier work
Excerpt: (§2) Thus, we can discern two agonist-mediated directed events which relate to the activation of JNK. This type of m ...

β2 [2] = settings: ref [34]; cited from earlier work; remark: listed apart in the source
human PAR2 [3] = molecular target: T1, human PAR2 (Homo sapiens, UniProt P55085); assay: TNFα-stimulated JNK activity (in vitro c-Jun phosphorylation), PAR2 agonist pre-incubation, PAR2 NCTC2544 cells (clone G); format: cell-based; settings: pre-incubation 30 min, TNFα 10 ng/ml 30 min
T1 construct: expressed in transfected cells
T1 sequence (P55085 26-397): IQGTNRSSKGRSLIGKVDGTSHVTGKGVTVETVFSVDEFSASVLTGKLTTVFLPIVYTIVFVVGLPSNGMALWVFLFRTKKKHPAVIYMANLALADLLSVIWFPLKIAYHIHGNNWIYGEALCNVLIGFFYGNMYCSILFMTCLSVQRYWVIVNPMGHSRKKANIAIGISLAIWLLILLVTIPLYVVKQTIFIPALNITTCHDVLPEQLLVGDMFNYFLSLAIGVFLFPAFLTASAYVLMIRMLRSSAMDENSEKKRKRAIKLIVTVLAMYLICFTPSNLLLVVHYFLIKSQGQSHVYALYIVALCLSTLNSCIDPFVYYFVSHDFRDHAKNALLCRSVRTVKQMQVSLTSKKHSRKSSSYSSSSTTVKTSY
Procedure: as §1
To measure JNK activity, cells were stimulated as appropriate and the reaction terminated by rapid aspiration and the addition of ice-cold PBS. […] Phosphorylation of GST-c-Jun was then determined by autoradiography. […]
(§3) Fig. 1 PAR2 activation mediates inhibition of TNFα-stimulated JNK activity and phosphorylation in PAR2 NCTC2544 cells. […] Samples were assessed for JNK activity (Panel A) or phospho-JNK levels (Panel C) as outlined in the Methods section. Gels from JNK assays were quantified (Panel B). Each value represents the mean ± s.e.m from at least 4 experiments and data was quantified by densitometry. ⁎P < 0.05, ⁎⁎P < 0.01 compared to TNFα alone.
Fig. 4 Concentration response effects of PAR2 peptides for activation of JNK and inhibition of TNFα-stimulated JNK. PAR2 expressing NCTC2544 cells (clone G) were incubated with increasing concentrations of SLIGKV-OH or 2f-LIGKV-OH for 30 min and assayed for JNK activity (Panel B) or stimulated for a further 30 min with TNFα (+) before JNK activity was assessed (Panel A). Samples were assessed for JNK activity as outlined in the Methods section. Gels from JNK assays were quantified (Panel C). Each value represents the mean ± s.e.m from at least 4 experiments and data was quantified by densitometry.

human PAR2 [4] = molecular target: T1, human PAR2; assay: TNFα-stimulated JNK phosphorylation (Western blot), PAR2 NCTC2544 cells (clone G); format: cell-based; settings: pre-incubation 30 min, TNFα 10 ng/ml 30 min
Procedure: as §1
Proteins were separated by 10% SDS–PAGE and transferred onto nitrocellulose. […]
as §3

human PAR2 [5] = molecular target: T1, human PAR2; settings: ref [17]; cited from earlier work
Excerpt: as §2

Cn1c2ccccc2c2c3c(c4c5ccccc5n(CCC#N)c4c21)CNC3=O [Go6976]
effect of classical PKC inhibitor on PAR2 mediated JNK inhibition (PKC): without effect | PKC isoform preference (PKC isoforms): preferentially inhibits the classical group of PKC isoforms

CC(C)NCC(O)COc1cccc2ccccc12 (stereo not shown) [propranolol]
cAMP accumulation, functional behaviour (β2 [1]): inverse agonist | ERK activation, functional behaviour (β2 [2]): partial agonist

trypsin
effect on TNFα-stimulated JNK activity (human PAR2 [3]): strongly inhibited both the phosphorylation and activity of JNK; also recorded: concentration-dependent inhibition of subsequent TNFα-stimulated JNK activity; also recorded: strongly mediate an inhibition of TNFα mediated JNK signalling | effect on TNFα-stimulated JNK phosphorylation (human PAR2 [4]): strongly inhibited both the phosphorylation and activity of JNK | JNK activity on PAR2 activation (human PAR2 [5]): increase in JNK activity
